For data set [1], the system named is Salmonella Albany. In words: Dose-response assay (MBC) on Salmonella serovars. Type of data set: cell-based. As to conditions: Salmonella enterica; serovar Albany, M9 broth.
Data set [2] deals with Salmonella Anatum. Kind of data set: Dose-response assay (MBC) on Salmonella serovars. Type of data set: cell-based. As to conditions: Salmonella enterica; serovar Anatum, M9 broth.
The test system of data set [3] is Salmonella Braenderup. In words: Dose-response assay (MBC) on Salmonella serovars. Type of data set: cell-based. As to conditions: Salmonella enterica; serovar Braenderup, M9 broth.
Data set [4] concerns Salmonella Enteritidis. In words: Dose-response assay (MBC) on Salmonella serovars. Type of data set: cell-based. As to conditions: Salmonella enterica; serovar Enteritidis, M9 broth.
In data set [5] the test system is nine Salmonella serotypes. In words: Activity spectrum and dose-response across Salmonella serotypes. The class given is cell-based, Salmonella enterica. As to conditions: for Effect against the nine Salmonella serotypes: 200 µM, M9 broth; for MBC: Salmonella, read-out: MBCs among the nine serotypes. The procedure:
The 128 SMs inhibiting S. Typhimurium growth (20% or higher) were tested for their antimicrobial effect on nine different Salmonella serovars frequently implicated in foodborne gastroenteritis outbreaks. […] Both screens were performed at 200 µM as described in the primary screening. Growth conditions for each strain are described in Supplementary Table S2.
S. Typhimurium was challenged with a determined concentration of SM as described in the primary screen.

The subject of data set [6] is avian Mycoplasma gallisepticum. In words: Activity spectrum on avian pathogens. The class given is cell-based. As to conditions: 100 µM, unpublished data.
Data set [7] concerns S. Typhimurium cell membrane. Kind of data set: Confocal microscopy, FM4-64 and SYTO9 staining. As to conditions: 5X MBC for 3 hrs, compared to DMSO control. Type of data set: cell-based, Salmonella enterica subsp. enterica serovar Typhimurium. On the procedure: An overnight suspension of S. […] The effect of the SMs on S. Typhimurium was assessed using confocal microscopy as previously described. Cells were stained for 45 min using FM4–64 (2 µg/ml; […] Invitrogen). Three microliters of stained bacteria were transferred onto agarose (1.2%) -coated glass slides. Microscopy was performed using a Leica TCS SP6 confocal scanning microscope with FM4–64 (515 nm/640 nm) and SYTO-9 (485 nm/498 nm) filters.

For data set [8], the system named is chicken red blood cells. Kind of data set: Hemolytic activity. Type of data set: cell-based. The conditions noted are these: chicken RBCs, 200 µM, 1 hr. The procedure:
(§1) Briefly, 200 µl of 10% sheep or chicken RBC suspension was incubated with 1 µl of SMs (200 µM) for 1 hr at 37 °C in a 96-well plate. After incubation, the plate was centrifuged at 3700 X g for 5 min at 4 °C and then placed on ice for five min. One hundred microliters of the supernatant were transferred into a fresh 96-well plate, and the OD was measured at 540 nm. One percent DMSO and 0.1% Triton-100X were used as negative and positive controls, respectively. Percentage hemolysis was calculated as: [(OD540 SM − OD540 DMSO)/(OD540 1X triton − OD540 PBS)] × 100.

In data set [9] the test system is sheep red blood cells. Kind of data set: Hemolytic activity. As to conditions: sheep RBCs, 200 µM, 1 hr. The class given is cell-based. On the procedure:
as §1

Data set [10] deals with S. Typhimurium in infected Caco-2, HD11, and THP-1 cell lines. Kind of data set: S. Typhimurium survival in infected cell lines, summary over lines. The class given is cell-based, Salmonella enterica subsp. enterica serotype Typhimurium. The conditions noted are these: over the three cell lines. The procedure:
The ability of four SMs to clear S. Typhimurium was evaluated using three cell lines (Caco-2 cells, HD11, and THP-1 cells) as previously described. A multiplicity of infection (MOI) of 10 was used. Infected cells were treated with 1 µl of SMs (final concentration ranged between 100 µM and 6.25 µM) and incubated at 37 °C for 24 hrs in humidified, 5% CO2 incubator. Following incubation, cells were washed once with 1X PBS, lysed with 0.1% Triton-100X, serial ten-fold diluted in 1X PBS, and plated on agar plate. Plates were incubated at 37 °C for 24 hrs to determine the intracellular bacteria. Cells not infected and not treated, and cells infected and treated with 2% DMSO were used as controls.

Data set [11] deals with Campylobacter jejuni 81–176. In words: Activity spectrum on foodborne pathogens. The class given is cell-based. The conditions noted are these: 200 µM.
Data set [12] relates to S. Typhimurium cell surface. Kind of data set: Scanning electron microscopy (SEM). As to conditions: 5X MBC for 3 hrs, compared to DMSO control. Type of data set: cell-based, Salmonella enterica subsp. enterica serovar Typhimurium. On the procedure:
Processing of the samples for SEM was performed with the same samples as above and as previously described. Briefly, one volume of bacterial suspension was mixed with one volume of fixative (3% glutaraldehyde, 1% paraformaldehyde in 0.1 M potassium phosphate buffer pH 7.2), and incubated for 2 hrs at 4 °C. Fixed cells were centrifuged for 5 min at 1,200 g, washed twice with 1X PBS, and resuspended into 1% osmium tetroxide for 1 hr at room temperature in the dark, followed by serial dehydration of the sample in ethanol and platinum splatter-coating. Visualization and imaging of the samples was performed using a Hitachi S-4700 scanning electron microscope.

Data set [13] relates to chicken cecal microbiota. In words: Cecal microbiota, 16S rRNA sequencing. Type of data set: in vivo. The conditions noted are these: compared to the DMSO group, P < 0.01.
The test system of data set [14] is Bifidobacterium longum. In words: Growth of probiotic bacteria at 200 µM. The class given is cell-based. The conditions noted are these: data not shown.
The subject of data set [15] is Lactobacillus brevis. Kind of data set: Growth of probiotic bacteria at 200 µM. The conditions noted are these: data not shown. The class given is cell-based.
Data set [16] relates to Lactobacillus rhamnosus GG. In words: Growth of probiotic bacteria at 200 µM. Type of data set: cell-based. As to conditions: data not shown.
The subject of data set [17] is PhoP regulon in S. Typhimurium. Details: method as in PubChem bioassay AID #1863, #1981, #2253, and #2401. The conditions noted are these: ref PubChem bioassay AID #1863, #1981, #2253, and #2401; cited from earlier work.

SMILES strings stand for the structures. ≈ marks a conversion by molar mass, not a printed value.

Turning to `CCCCCCCCCCCCCCCC[n+]1ccn(CC#N)c1` [SM3], the MBC in data set [1] was 25 µM; in data set [2], 25 µM; in [3], 25 µM; in data set [4] it was 25 µM; in [5], 25 to 50 µM. Besides, the “Effect against the nine Salmonella serotypes” value in data set [5] is “cidal”. For the same compound, the “Effect on Mycoplasma gallisepticum” value in data set [6] was “lethal”. Besides, the “Membrane phenotype, FM4–64 staining” value in data set [7] is reported as “No signal was detected”. The Hemolytic activity entry in data set [8] is given as “below 49%”; in [9], “below 18%”. Further, the “Concentration clearing internalized Salmonella” value in [10] is 50 µM.

As to `CC1CCC(C(C)C)C(OC(=O)Cn2c[n+](CC(=O)OC3CC(C)CCC3C(C)C)c3ccccc32)C1` (stereo not drawn) [SM1], the MBC was 100 µM in [4] and 50 to 100 µM in data set [5]. In addition, the “Effect against the nine Salmonella serotypes” value in data set [5] is “cidal”. Also, the “Effect on Campylobacter jejuni 81–176” value in [11] was “lethal”. The “Membrane phenotype, FM4–64 staining” value in data set [7] was “No signal was detected”. Besides, in data set [12], the “Cell surface phenotype in SEM” value is “distorted”. Besides, the Hemolytic activity in data set [8] and in data set [9] was greater than 50% throughout. In addition, the “Salmonella OTUs in ceca” value in data set [13] is on record as “reduction”.

With `CCOc1cc(/C=N/N=C(N)N)ccc1OCc1ccc(Cl)cc1` [SM5], the values for the MBC in [1], in data set [4] and in [5] were 100 µM (≈ 34.7 µg/mL), 50 µM (≈ 17.3 µg/mL) and 25 to 100 µM (≈ 8.67 to 34.7 µg/mL), respectively. For the same compound, in data set [6], the “Effect on Mycoplasma gallisepticum” value is “lethal”. Also, the “Membrane phenotype, FM4–64 staining” value in data set [7] was “a bright red spot was detected within every bacterium”. Also, in [12], the “Cell surface phenotype in SEM” value is “outer membrane vesicles of approximately 100 to 300 nm diameter”. The Hemolytic activity entry in data set [8] and in data set [9] was “lower than 1%” throughout. For the same compound, in [13], the “Salmonella OTUs in ceca” value is “reduction”. The “Effect on growth of Bifidobacterium longum” value in data set [14] is “did not affect the growth”. In addition, the “Effect on growth of Lactobacillus brevis” value in data set [15] is reported as “did not affect the growth”. Moreover, in [16], the “Effect on growth of Lactobacillus rhamnosus GG” value is given as “did not affect the growth”. In addition, the “Activity on the PhoP regulon” value in data set [17] is recorded as “direct or indirect inhibitor”.

The record behind these values is article PMC6127322, “Novel Imidazole and Methoxybenzylamine Growth Inhibitors Affecting Salmonella Cell Envelope Integrity and its Persistence in Chickens” (Scientific Reports, 2018).
